According to ChEMBL document CHEMBL3860053, “Optimization of amino acid thioesters as inhibitors of metallo-β-lactamase L1” (Bioorg Med Chem Lett, 2016):
Values after ≈ are worked out from the molar mass of the structure shown.

Columns and labels:
[1] = Inhibition of metallo-beta-lactamase L1 (unknown origin) overexpressed in Escherichia coli BL21(DE3) preincubated for 30 mins followed by addition of cefazolin as substrate by spectrophotometric method
Escherichia coli = experiment: Potentiation of cefazolin-induced antibacterial activity against Escherichia coli BL21(DE3) assessed as cefazolin MIC at 16 ug/ml measured after 12 hrs by macrodilution broth method (reference value: 4 ug/ml); assay type: functional
[2] = Inhibition of metallo-beta-lactamase L1 (unknown origin) overexpressed in Escherichia coli BL21(DE3) assessed as restoration of cefazolin antibacterial activity by measuring cefazolin MIC at 16 ug/ml measured after 12 hrs by macrodilution broth method (reference value: 16 ug/ml)

| Structure (SMILES) | IC50 [1] [nM] | MIC (Escherichia coli) [µg/mL] | MIC [2] [µg/mL] |
| --- | --- | --- | --- |
| CSCC[C@H](NC(=O)c1ccccc1)C(=O)SCC(=O)O | 80 | 4 | 4 (≈ 12.2 µM) |
| O=C(O)CSC(=O)[C@H](Cc1ccccc1)NC(=O)Cc1ccc(-c2ccccc2)cc1 | 140 | 4 | 2 (≈ 4.61 µM) |
| O=C(O)CSC(=O)[C@H](Cc1c[nH]c2ccccc12)NC(=O)Cc1ccc(-c2ccccc2)cc1 | 80 | 4 | 4 (≈ 8.46 µM) |
| O=C(O)CSC(=O)[C@H](Cc1c[nH]c2ccccc12)NC(=O)Cc1ccccc1 | 210 | 4 | 4 (≈ 10.1 µM) |
| CSCC[C@H](NC(=O)Cc1ccc(-c2ccccc2)cc1)C(=O)SCC(=O)O | 20 | 4 | 4 (≈ 9.58 µM) |
| CCCCCC(=O)N[C@@H](Cc1c[nH]c2ccccc12)C(=O)SCC(=O)O | 600 | 4 | 4 (≈ 10.6 µM) |
| CSCC[C@H](NC(=O)Cc1ccccc1)C(=O)SCC(=O)O | 90 | 4 | 4 (≈ 11.7 µM) |
| O=C(O)CSC(=O)[C@H](Cc1ccccc1)NC(=O)Cc1ccccc1 | 250 | 4 | 2 (≈ 5.6 µM) |
| O=C(O)CSC(=O)c1ccc(NC(=O)OCc2ccccc2)cc1 |  | 4 | 16 (≈ 46.3 µM) |
| CCCCCC(=O)N[C@@H](Cc1ccccc1)C(=O)SCC(=O)O | 330 | 4 | 2 (≈ 5.93 µM) |
